Measurements as given in patent US20020192711A1, “Methods for identifying ligands of G-Protein-Coupled receptors” (priority 2001, published 2002).
“Also recorded” adds a separate entry of the source.

Legend:
β1-adrenergic receptor = β1-adrenergic receptor (Homo sapiens, UniProt P08588); experiment: Binding-displacement at β1-adrenergic receptor (FIG. 2D); conditions: membranes or solubilized receptor; 10 μM unlabeled ligand
Procedure: (§1) The β1-adrenergic receptor, either in the membranes or solubilized (according to the invention), was incubated with the radiolabeled ligand, iodocyanopindolol, at a set concentration, in the presence or absence of 10 μM unlabeled ligand (pindolol). In the absence of unlabeled ligand, maximal binding of the radiolabeled ligand is observed.

CCR5 [1] = target: T1, CCR5 (Homo sapiens, UniProt P51681, L55Q); experiment: Binding-displacement of radiolabeled MIP-1β at CCR5 (FIG. 2A); conditions: CCR5 in membranes or solubilized and immobilized; various concentrations
T1 construct: made in house; host or cells: insect cells (Sf9 / High Five), baculovirus
T1 sequence (P51681 1-352 L55Q): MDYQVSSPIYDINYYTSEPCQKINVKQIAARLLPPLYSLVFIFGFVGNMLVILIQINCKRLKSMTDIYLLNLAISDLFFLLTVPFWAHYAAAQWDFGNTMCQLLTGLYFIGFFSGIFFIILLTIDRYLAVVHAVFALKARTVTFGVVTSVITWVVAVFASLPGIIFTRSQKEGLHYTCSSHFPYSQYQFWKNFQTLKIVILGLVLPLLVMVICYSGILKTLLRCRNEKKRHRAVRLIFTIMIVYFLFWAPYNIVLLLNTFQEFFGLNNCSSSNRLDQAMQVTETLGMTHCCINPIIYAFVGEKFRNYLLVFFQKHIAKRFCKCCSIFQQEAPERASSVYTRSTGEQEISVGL
Procedure: The CCR5 receptor, either in membranes or solubilized and immobilized onto the column, was incubated with the radiolabeled ligand, MIP-1β, at a set concentration, in the presence of various concentrations of the unlabeled ligand, MIP-1α. […] This displacement of the radioligand with increasing concentrations of unlabeled ligand gave a standard sigmoidal shaped curve. The two curves, one for the membrane binding-displacement and one for the binding-displacement for the immobilized receptor were substantially similar (within the experimental error), indicating similar functional conformation of the receptor in the membranes and immobilized receptor.

CCR5 [2] = experiment: Ligand mixture incubated with immobilized CCR5, western blot detection; assay type: binding; conditions: mixture of RANTES, MDC, gonadotropin releasing hormone
Procedure: CCR5 was obtained and prepared with a GST tag bound to glutathione column according to the steps provided in Example 1. Thereafter, a ligand mixture (RANTES, MDC, gonadotropin releasing hormone) was incubated with immobilized CCR5 to determine which ligands bound to the receptor. After washing to remove non-specific binding, the SDS-PAGE sample buffer was added to each, boiled for 1 minute, and loaded onto an SDS-PAGE gel. In order to analyze the beads, SDS-PAGE was performed on the various samples and transferred to nitrocellulose by western blotting to determine which ligands were bound. Duplicate samples were run, one group for detection with anti-RANTES antibody and one group for detection with anti-MDC antibody.
The molecular weights (in kDa) as determined by the standards are listed on the left side of the blot. The individual lanes are numbered across the top of the blot. Lanes 1-4 were developed with anti-RANTES antibody. […] The band at approximately 8 kDa is RANTES. […] Lane 3 is a RANTES standard (positive control). Lane 4 is the MDC (macrophage-derived chemokine) standard (negative control—[…]). Lanes 5-8 were developed with anti-MDC (macrophage-derived chemokine, a CCR4 ligand ) antibody. […] Lane 6 is the same as lane 2 but developed with anti-MDC antibody. Lane 7 is RANTES standard and Lane 8 is MDC standard. […]

CCR5 [3] = experiment: Affinity purification of THP-1 culture supernatant HPLC fractions on immobilized CCR5, silver stain/mass spectrometry; assay type: binding; conditions: LPS-induced THP-1 supernatant, RP-HPLC fractions
Procedure: Expressed CCR5-GST was immobilized in the same fashion as described above using a glutathione-sepharose resin. THP-1 cells, a monocytic cell line, were induced with lipopolysaccharide (LPS) from E. coli extracts (Sigma, St. Louis, Mo.), and grown for 48 hours. THP-1 cells were selected for the purpose of this experiment because THP-1 cells are a general monocytic cell line that expresses CCR5 (the receptor of interest). Also, THP-1 cells, and other monocytes are involved in the inflammatory process and migrate to sites of inflammation in response to a chemokine gradient. These cells can also be induced to produce more chemokines by using reagents such as lipopolysaccharide (LPS) from E. coli.
The THP-1 cells were harvested by centrifugation. […] The quantity of RANTES quantitatively determined to be approximately 1 μg in approximately 2-3 L. These crude fractions or pools were purified by CCR5 affinity columns and by incubating with the immobilized CCR5. […]
The CCR5 with column fractions were compared to CCR5-only controls because there are proteins that non-specifically bind to the column, and because the CCR5 receptor and any contaminants present in the preparation can be seen as protein bands. […] Therefore, bands that were detected only in the fraction samples were submitted for sequencing and identified by mass spectrometry. […]

CCR5 [4] = experiment: Affinity de-orphaning: in vitro translated cDNA pool incubated with immobilized CCR5-GST, SDS-PAGE/phosphorimage; assay type: binding; conditions: human lung cDNA library spiked with RANTES, [35S]-Met, CCR5 on sepharose beads
Procedure: CCR5 was obtained and prepared with a GST tag according to the steps provided in Example 1. CCR5-GST was immobilized on a glutathione column using the GST tag, and incubated with ligands obtained using in vitro translation of small pools of approximately 100 clones from a cDNA library. […] Thereafter, a human lung cDNA library was spiked with RANTES and was transcribed and translated in vitro using the TNT Quick Coupled Wheat Germ kit, available from Promega Corporation (Madison, Wis.) with [^35S]-Met. RANTES cDNA alone was used as a positive control for translation and binding experiments.
A human lung cDNA library was chosen because RANTES was originally isolated from a human lung library. Also, libraries derived from tissues having an abundant number of immune cells, such as spleen and thymus tissues also are possible sources. The cDNA was in a bacterial host (E. coli). In general, the clones were transcribed and translated, and a mixture of their respective proteins was produced in a concentrated sample. This sample then was then probed with a receptor (i.e., CCR5) to determine if there are any proteins in the pool that can bind to the receptor of interest. The concentration was approximately 5×10^9 colony forming units per ml. Thus, dilution was necessary to dilute the number of clones to approximately 100 per pool. […]

C5a receptor = target: T2, C5a receptor (Homo sapiens, UniProt P21730); experiment: Binding-displacement at C5a receptor (FIG. 2E); conditions: membranes or solubilized receptor; 10 μM unlabeled ligand
T2 sequence (P21730 1-350): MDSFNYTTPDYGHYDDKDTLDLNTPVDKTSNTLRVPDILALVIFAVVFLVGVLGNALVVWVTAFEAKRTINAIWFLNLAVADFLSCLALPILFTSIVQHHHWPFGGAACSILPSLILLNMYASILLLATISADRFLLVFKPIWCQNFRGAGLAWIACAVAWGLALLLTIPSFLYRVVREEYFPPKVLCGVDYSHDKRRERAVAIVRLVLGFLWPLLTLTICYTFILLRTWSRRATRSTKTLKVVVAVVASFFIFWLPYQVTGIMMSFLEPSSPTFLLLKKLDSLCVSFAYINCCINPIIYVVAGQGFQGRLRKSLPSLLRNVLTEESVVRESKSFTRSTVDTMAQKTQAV
Procedure: as §1, with “[…],” for “β1-adrenergic receptor,”, “C5a,” for “iodocyanopindolol,”, “(C5a).” for “(pindolol).”

CCR5 [5] = conditions: CCR5 membrane preparations; value obtained by Receptor Biology, own preparations comparable; read-out: Kd for MIP1-β binding; cited from earlier work

Sequence of β1-adrenergic receptor (P08588 whole entry, species assumed): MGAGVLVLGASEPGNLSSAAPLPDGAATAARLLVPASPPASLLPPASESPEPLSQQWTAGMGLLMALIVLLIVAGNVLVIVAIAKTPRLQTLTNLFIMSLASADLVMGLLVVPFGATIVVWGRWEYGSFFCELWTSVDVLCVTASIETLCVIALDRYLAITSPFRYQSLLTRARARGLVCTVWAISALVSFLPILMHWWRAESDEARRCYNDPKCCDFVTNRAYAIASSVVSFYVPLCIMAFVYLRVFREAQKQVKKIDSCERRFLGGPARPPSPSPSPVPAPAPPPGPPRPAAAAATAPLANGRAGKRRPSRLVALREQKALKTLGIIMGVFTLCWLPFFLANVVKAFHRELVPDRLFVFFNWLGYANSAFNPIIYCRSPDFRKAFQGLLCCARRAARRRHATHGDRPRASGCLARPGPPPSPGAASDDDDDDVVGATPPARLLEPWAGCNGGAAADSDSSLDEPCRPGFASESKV

Q: For `CC(C)NCC(O)COc1cccc2[nH]ccc12` (stereo not drawn) [pindolol], which “displacement of radiolabeled iodocyanopindolol by unlabeled ligand” value (β1-adrenergic receptor) is on record?
A: displacement of the radiolabeled ligand down to background levels

Q: Which “displacement of radiolabeled MIP-1β by unlabeled ligand” value (CCR5 [1]) does the source give for “MIP-1α: natural ligand for CCR5, unlabeled competing ligand” here?
A: displaced more of the radiolabeled ligand

Q: What does the source list for RANTES: a natural ligand for CCR5?
A: binding to immobilized CCR5 from ligand mixture (CCR5 [2]): specifically binds to the CCR5 receptor; also recorded: bound specifically to CCR5; ligand bound to immobilized CCR5, identified by mass spectrometry (CCR5 [3]): ligand for CCR5; binding of translated ligand to immobilized CCR5 (CCR5 [4]): binding was observed

Q: For “statherin: second binder identified from THP-1 supernatant on CCR5 (DSSEEKFLRRIGRFGYGYGPYQPVPEQPLYPQPYQPQYQQYTF; UniProt P02808 20-62, looked up)”, which “ligand bound to immobilized CCR5, identified by mass spectrometry” value (CCR5 [3]) is on record?
A: binder

B1: C5a: ligand of the C5a receptor (protein, UniProt P01031 678-751, looked up)
C5a anaphylatoxin: TLQKKIEEIAAKYKHSVVKKCCYDGACVNNDETCEQRAARISLGPRCIKAFTECCVVASQLRANISHKDMQLGR
modifications: C5a anaphylatoxin
notes: ligand of the C5a receptor
Q: With B1 as the molecule, how does the “displacement of radiolabeled C5a by unlabeled ligand” value (C5a receptor) read?
A: displacement of the radiolabeled ligand down to background levels

B2: MIP1-β: natural ligand for CCR5, used as radioligand (protein, UniProt P13236 24-92, looked up)
C-C motif chemokine 4: APMGSDPPTACCFSYTARKLPRNFVVDYYETSSLCSQPAVVFQTKRSKQVCADPSESWVQEYVYDLELN
modifications: also: radiolabel
Q: For B2, which Kd (CCR5 [5]) is on record?
A: < 1 nM

B3: MDC: macrophage-derived chemokine, a CCR4 ligand (protein, UniProt O00626 25-93, looked up)
C-C motif chemokine 22: GPYGANMEDSVCCRDYVRYRLPLRVVKHFYWTSDSCPRPGVVLLTFRDKEICADPRVPWVKMILNKLSQ
Q: With B3 as the molecule, how does the “binding to immobilized CCR5 from ligand mixture” value (CCR5 [2]) read?
A: does not bind to CCR5
